Measured values reported in patent US20240174670A1, “4-AMINO-6-OXO-PYRIDAZINE DERIVATIVES MODULATING NLRP3” (JANSSEN PHARMACEUTICA NV, priority 2021, published 2024).

Columns and labels:
TNF = assay: PBMC assay, TNF release after LPS stimulation; type: cell-based; conditions: human PBMCs, 30 min preincubation, 100 ng/ml LPS for 6 hrs, supernatant, MSD technology
Procedure: (§1) Peripheral venous blood was collected from healthy individuals and human peripheral blood mononuclear cells (PBMCs) were isolated from blood by Ficoll-Histopaque (Sigma-Aldrich, A0561) density gradient centrifugation. After isolation, PBMCs were stored in liquid nitrogen for later use. Upon thawing, PBMC cell viability was determined in growth medium (RPMI media supplemented with 10% fetal bovine serum, 1% Pen-Strep and 1% L-glutamine). Compounds were spotted in a 1:3 serial dilution in DMSO and diluted to the final concentration in 30 μl medium in 96 well plates (Falcon, 353072). PBMCs were added at a density of 7.5×10^4 cells per well and incubated for 30 min in a 5% CO2 incubator at 37 ° C. LPS stimulation was performed by addition of 100 ng/ml LPS (final concentration, Invivogen, tlrl-smlps) for 6 hrs followed by collection of cellular supernatant and the analysis of IL-1β[…] and TNF cytokines levels (uμ) via MSD technology according to manufacturers' guidelines (MSD, K151A0H).
(§2) IC50 and AC50 values (for IL-1β) and EC50 and AC50 values (TNF) were obtained on compounds of the invention/examples, and the AC50 values are depicted in the following table: […]

IL-1β = assay: PBMC assay, IL-1β release after LPS stimulation; type: cell-based; conditions: human PBMCs, 30 min preincubation, 100 ng/ml LPS for 6 hrs, supernatant, MSD technology, read-out: IL1β AC50
Procedure: The activity of a compound according to the present invention can be assessed by in vitro methods.
as §1, §2

Compound	AC50 (TNF) [µM]	AC50 (IL-1β) [µM]
COC[C@@H]1CCCN1c1cc(=O)n(CC(=O)Nc2ccc3nncn3c2)nc1C(C)C [Compound 8]	> 10	5.81
CC(C)c1nn(CC(=O)Nc2ccc3nncn3c2)c(=O)cc1N1CCCCC1C (stereo not shown) [Compound 54]	> 20	3.62
CO[C@@H]1CCN(c2cc(=O)n(CC(=O)Nc3ccc4nncn4c3)nc2C(C)C)C1 [Compound 17]	> 10	2.9
CC(C)c1nn(CC(=O)Nc2ccc3nncn3c2)c(=O)cc1N1CCC(c2nccs2)C1 (stereo not shown) [Compound 64]	> 20	15.1
CC(C)c1nn(CC(=O)Nc2ccc3nncn3c2)c(=O)cc1N1CCC[C@@H]1Cn1ccnc1 [Compound 62]	> 20	> 20
CC(C)c1nn(CC(=O)Nc2ccc3nncn3c2)c(=O)cc1N1CC[C@@H](N(C)C)C1 [Compound 27]	> 10	> 15
CC(C)c1nn(CC(=O)Nc2ccc3nncn3c2)c(=O)cc1NC1CC1 [Compound 66]	> 20	> 20
CC(C)c1nn(CC(=O)Nc2ccc3nncn3c2)c(=O)cc1NCC(F)(F)F [Compound 4]	> 10	> 15
CC(C)c1nn(CC(=O)Nc2ccc3nncn3c2)c(=O)cc1Nc1cc(CC2CC2)on1 [Compound 44]	> 20	> 20
CC(C)c1nn(CC(=O)Nc2ccc3nncn3c2)c(=O)cc1N1CCC[C@H]1CO (single isomer, unassigned) [Compound 11]	> 10	> 15
CC(C)c1nn(CC(=O)Nc2ccc3nncn3c2)c(=O)cc1N1CCC(Cc2ccncc2)C1 (stereo not shown) [Compound 57]	> 20	> 20
CC(C)c1nn(CC(=O)Nc2ccc3nncn3c2)c(=O)cc1NC(C)C1CC1(F)F (stereo not shown) [Compound 40, N-([1,2,4]triazolo[4,3-a]pyridin-6-yl)-2-(4-((1-(2,2-difluorocyclopropyl)ethyl)amino)-3-isopropyl-6-oxopyridazin-1(6H)-yl)acetamide]	> 20	> 20
CC1CN(c2cc(=O)n(CC(=O)Nc3ccc4nncn4c3)nc2C(C)C)C1 [Compound 23]	> 10	0.71
CC(C)c1nn(CC(=O)Nc2ccc3nncn3c2)c(=O)cc1N1CCCC1Cc1ccccn1 (stereo not shown) [Compound 63]	> 20	1.28
